Test results reported in DBAASP.
Converted amounts (≈) assume the structure as drawn. “And” between values parts separate entries of the source, which are not always exact repeats. Identical values can stand only once. Each block holds one compound with its values, some of them ahead of it.

Experiments:
Test in all cases: ≥ marks a high value that may be exact or a test limit, other limits are often not marked, values filed in µg/mL are converted to µM
[1] = tested on: Escherichia coli O157:H7 ATCC 43895
[2] = tested on: Staphylococcus aureus ATCC 43300
[3] = tested on: Acinetobacter baumannii ATCC 19606
[4] = tested on: Staphylococcus aureus ST1065
[5] = tested on: Escherichia coli ATCC 25922
[6] = tested on: Enterococcus faecalis ATCC 29212
[7] = tested on: Candida albicans NCPF 1467
[8] = tested on: Candida parapsilosis ATCC 22019
[9] = tested on: Staphylococcus aureus ATCC BAA-44
[10] = tested on: Streptococcus pyogenes ATCC 19615
[11] = tested on: Staphylococcus aureus NCTC 10788
[12] = tested on: Staphylococcus aureus ATCC 25923
[13] = tested on: Escherichia coli NCTC 10418
Saccharomyces cerevisiae = tested on: Saccharomyces cerevisiae
[14] = tested on: Pseudomonas aeruginosa ATCC 27853
Escherichia coli ML-35p = tested on: Escherichia coli ML-35p
[15] = tested on: Klebsiella pneumoniae ATCC 13883
Escherichia coli = tested on: Escherichia coli
Leuconostoc lactis = tested on: Leuconostoc lactis
Staphylococcus aureus = tested on: Staphylococcus aureus
Micrococcus luteus = tested on: Micrococcus luteus
Streptococcus uberis = tested on: Streptococcus uberis
Listeria innocua = tested on: Listeria innocua
[16] = tested on: Staphylococcus epidermidis
Bacillus cereus = tested on: Bacillus cereus
Pasteurella multocida = tested on: Pasteurella multocida
Escherichia coli K-12 = tested on: Escherichia coli K-12
[17] = tested on: Staphylococcus aureus UAMS-1
Escherichia coli DC2 = tested on: Escherichia coli DC2
[18] = tested on: Staphylococcus aureus IAM 1011
Salmonella typhimurium = tested on: Salmonella typhimurium
[19] = tested on: Bacillus subtilis IAM 1026
[20] = tested on: Vibrio parahaemolyticus Vp+1
[21] = tested on: Shewanella putrefaciens IAM 1509
[22] = tested on: Photobacterium damselae subsp. piscicida Sp 9587
[23] = tested on: Escherichia coli JCM 1649
[24] = tested on: Vibrio anguillarum NCIMB 829
[25] = tested on: Aeromonas salmonicida NCIMB 1102

MIC [1]: 8 µM (≈ 22.9 µg/mL)
Compound: CC(C)C[C@H](NC(=O)[C@H](C)N)C(=O)N[C@@H](Cc1c[nH]c2ccccc12)C(=O)N[C@@H](CCCCN)C(=O)N[C@H](C(=O)N[C@@H](CC(C)C)C(=O)N[C@@H](CC(C)C)C(=O)N[C@@H](CCCCN)C(=O)N[C@@H](CCCCN)C(=O)N[C@H](C(=O)N[C@@H](CC(C)C)C(=O)N[C@@H](CCCCN)C(=O)N[C@@H](C)C(=O)N[C@@H](C)C(=O)N[C@@H](C)C(=O)N[C@@H](CCCCN)C(=O)N[C@@H](C)C(=O)N[C@@H](C)C(=O)N[C@@H](CC(C)C)C(=O)N[C@@H](CCCCN)C(=O)N[C@@H](C)C(=O)N[C@H](C(=O)N[C@@H](CC(C)C)C(=O)N[C@H](C(=O)NCC(=O)N[C@@H](C)C(=O)N[C@@H](CC(N)=O)C(=O)N[C@@H](C)C(N)=O)C(C)C)C(C)C)C(C)C)[C@@H](C)O [ALWKTLLKKVLKAAAKAALKAVLVGANA]

MIC [2]: 6.25 µM (≈ 12.7 µg/mL)
MIC [3]: 6.25 µM (≈ 12.7 µg/mL)
MIC [4]: 6.25 µM (≈ 12.7 µg/mL)
MIC [5]: 70 µM (≈ 142 µg/mL)
MIC [6]: 25 µM (≈ 50.9 µg/mL)
MIC [7]: ≥ 100 µM
MIC [8]: ≥ 100 µM
MIC [9]: 6.25 µM (≈ 12.7 µg/mL)
MIC [10]: 3.12 µM (≈ 6.35 µg/mL)
MIC [11]: 5 µM (≈ 10.2 µg/mL)
MIC [12]: 6.25 µM (≈ 12.7 µg/mL)
MIC [13]: ≥ 80 µM
MIC (Saccharomyces cerevisiae): 12.5 µM (≈ 25.4 µg/mL)
MIC [14]: > 100 µM
MIC (Escherichia coli ML-35p): ≥ 100 µM
MIC [15]: ≥ 100 µM
Compound: CC[C@H](C)[C@H](NC(=O)[C@H](CO)NC(=O)[C@H](C)NC(=O)[C@@H](NC(=O)CNC(=O)[C@H](CO)NC(=O)[C@@H](NC(=O)[C@@H](NC(=O)[C@H](Cc1cnc[nH]1)NC(=O)[C@@H]1CCCN1C(=O)[C@@H](NC(=O)[C@H](CC(C)C)NC(=O)[C@H](CO)NC(=O)[C@H](CC(C)C)NC(=O)[C@@H](N)Cc1ccccc1)[C@@H](C)CC)[C@@H](C)CC)C(C)C)C(C)C)C(=O)N[C@@H](C)C(=O)N[C@@H](CCCCN)C(=O)N[C@@H](Cc1cnc[nH]1)C(=O)N[C@@H](Cc1ccccc1)C(N)=O [FLSLIPHIVSGVASIAKHF]

MIC [2]: > 200 µM
MIC [3]: > 200 µM
MIC [4]: ≥ 200 µM
MIC [5]: > 200 µM
MIC [6]: > 200 µM
MIC [8]: ≥ 200 µM
MIC [9]: ≥ 200 µM
MIC [10]: 12.5 µM (≈ 25.3 µg/mL)
MIC [12]: > 200 µM
MIC (Saccharomyces cerevisiae): ≥ 200 µM
MIC [14]: > 200 µM
MIC (Escherichia coli ML-35p): ≥ 200 µM
MIC [15]: ≥ 200 µM
Compound: CC[C@H](C)[C@H](NC(=O)[C@H](C)NC(=O)[C@H](CC(C)C)NC(=O)[C@H](CO)NC(=O)[C@H](C)NC(=O)[C@@H](NC(=O)CNC(=O)[C@H](CO)NC(=O)[C@@H](NC(=O)[C@@H](NC(=O)[C@H](Cc1cnc[nH]1)NC(=O)[C@@H]1CCCN1C(=O)[C@@H](NC(=O)[C@H](CC(C)C)NC(=O)[C@H](CO)NC(=O)[C@H](CC(C)C)NC(=O)[C@@H](N)Cc1ccccc1)[C@@H](C)CC)[C@@H](C)CC)C(C)C)C(C)C)C(=O)N[C@@H](Cc1cnc[nH]1)C(=O)N[C@@H](Cc1ccccc1)C(N)=O [FLSLIPHIVSGVASLAIHF]

MIC (Escherichia coli): > 69.6 µM
MIC (Leuconostoc lactis): 17.4 µM (≈ 25 µg/mL)
MIC (Staphylococcus aureus): 69.6 µM (≈ 99.9 µg/mL)
MIC (Micrococcus luteus): ≥ 69.6 µM
MIC (Streptococcus uberis): ≥ 69.6 µM
MIC (Listeria innocua): ≥ 69.6 µM
MIC [16]: ≥ 69.6 µM
MIC (Bacillus cereus): ≥ 69.6 µM
MIC (Pasteurella multocida): ≥ 69.6 µM
Compound: CC[C@H](C)[C@H](NC(=O)[C@H](CC(N)=O)NC(=O)[C@H](CCCCN)NC(=O)[C@@H](NC(=O)[C@@H](NC(=O)[C@H](CC(=O)O)NC(=O)[C@H](Cc1ccccc1)NC(=O)[C@H](CC(C)C)NC(=O)CN)[C@@H](C)CC)[C@@H](C)CC)C(=O)N[C@@H](Cc1ccccc1)C(=O)N[C@@H](CO)C(=O)NCC(=O)N[C@@H](CC(C)C)C(N)=O [GLFDIIKNIFSGL]

MIC (Escherichia coli K-12): ≥ 40 µM
MIC (Staphylococcus aureus): > 24 µM and 12 µM
MIC [17]: ≥ 160 µM
MIC (Escherichia coli DC2): 2 µM (≈ 5.67 µg/mL)
Compound: CC[C@H](C)[C@H](NC(=O)[C@H](CCCCN)NC(=O)[C@H](CCC(=O)O)NC(=O)[C@H](CCCCN)NC(=O)[C@@H](NC(=O)[C@H](CCCCN)NC(=O)[C@H](CCCN=C(N)N)NC(=O)[C@H](Cc1ccccc1)NC(=O)[C@H](Cc1ccccc1)NC(=O)[C@H](CC(=O)O)NC(=O)CNC(=O)[C@H](CC(C)C)NC(=O)[C@@H](N)CC(C)C)C(C)C)C(=O)NCC(=O)N[C@@H](CCCCN)C(=O)N[C@@H](CCC(=O)O)C(=O)N[C@@H](Cc1ccccc1)C(=O)N[C@@H](CCCCN)C(=O)N[C@@H](CCCN=C(N)N)C(=O)N[C@H](C(=O)N[C@H](C(=O)N[C@@H](CCC(N)=O)C(=O)N[C@@H](CCCN=C(N)N)C(=O)O)C(C)C)[C@@H](C)CC [LLGDFFRKVKEKIGKEFKRIVQR]

MIC [18]: 19.3 µM (≈ 50 µg/mL)
MIC (Salmonella typhimurium): 19.3 µM (≈ 50 µg/mL)
MIC [19]: 19.3 µM (≈ 50 µg/mL)
MIC [21]: 4.83 µM (≈ 12.5 µg/mL)
MIC [22]: 9.66 µM (≈ 25 µg/mL)
MIC [23]: 19.3 µM (≈ 50 µg/mL)
MIC [24]: 19.3 µM (≈ 50 µg/mL)
MIC [25]: 19.3 µM (≈ 50 µg/mL)
Compound: CC[C@H](C)[C@H](NC(=O)[C@H](CCC(N)=O)NC(=O)CNC(=O)[C@H](CC(C)C)NC(=O)[C@@H](NC(=O)[C@H](CCCCN)NC(=O)[C@H](CCCN=C(N)N)NC(=O)[C@H](Cc1c[nH]c2ccccc12)NC(=O)[C@@H](N)CC(N)=O)[C@@H](C)CC)C(=O)N[C@@H](C)C(=O)N[C@@H](CO)C(=O)N[C@H](C(=O)NCC(=O)N[C@@H](C)C(=O)NCC(=O)N[C@@H](CC(C)C)C(=O)N[C@@H](CC(C)C)C(=O)NCC(=O)N[C@@H](CO)C(=O)N[C@@H](CC(C)C)C(=O)N[C@@H](CC(C)C)C(=O)N[C@@H](C)C(=O)NCC(=O)N[C@@H](Cc1ccc(O)cc1)C(=O)N[C@@H](CCC(=O)O)C(=O)O)C(C)C [NWRKILGQIASVGAGLLGSLLAGYE]
MIC [20]: 19.3 µM (≈ 50 µg/mL)

MIC [18]: 4 µM (≈ 12.5 µg/mL)
MIC (Salmonella typhimurium): 16 µM (≈ 50 µg/mL)
MIC [19]: 8 µM (≈ 25 µg/mL)
MIC [21]: 2 µM (≈ 6.25 µg/mL)
MIC [22]: 8 µM (≈ 25 µg/mL)
MIC [23]: 16 µM (≈ 50 µg/mL)
MIC [24]: 16 µM (≈ 50 µg/mL)
MIC [25]: 8 µM (≈ 25 µg/mL)
Compound: CC(C)C[C@H](NC(=O)[C@H](Cc1cnc[nH]1)NC(=O)CNC(=O)[C@H](C)NC(=O)[C@H](C)NC(=O)[C@@H](NC(=O)[C@H](Cc1ccccc1)NC(=O)[C@H](C)NC(=O)[C@H](CC(C)C)NC(=O)[C@H](CCCCN)NC(=O)[C@H](CCCCN)NC(=O)[C@H](CC(C)C)NC(=O)[C@H](CC(C)C)NC(=O)[C@H](CCC(=O)O)NC(=O)[C@H](CCCN=C(N)N)NC(=O)[C@H](Cc1c[nH]c2ccccc12)NC(=O)[C@@H](N)Cc1c[nH]c2ccccc12)[C@@H](C)O)C(=O)NCC(=O)N[C@@H](CO)C(=O)N[C@H](C(=O)N[C@@H](CC(C)C)C(=O)N[C@@H](C)C(=O)N[C@@H](C)C(=O)N[C@@H](CCCCN)C(=O)N[C@@H](CCC(N)=O)C(=O)N[C@@H](CO)C(=O)NCC(=O)N[C@@H](Cc1c[nH]c2ccccc12)C(=O)O)C(C)C [WWRELLKKLAFTAAGHLGSVLAAKQSGW]
MIC [20]: 16 µM (≈ 50 µg/mL)
